Patent US12415785B2, “Compound modulators of sting” (CTXT PTY LTD, priority 2019, dated 2025)

Key:
[1] = target: human STING (HAQ) (Homo sapiens, UniProt Q86WV6, G230A/H232R/R293Q); assay: Differential scanning fluorimetry (DSF), huSTING (HAQ); type: binding; conditions: 2 μM protein, compound 100 μM; Tm with ligand minus Tm of protein alone (1% DMSO); read-out: DSF huSTING (HAQ) ΔTm (° C.)
Procedure: Biophysical experiments were performed with three different recombinant human STING protein variants designated according to allelic nomenclature of Yi et al., (2013). […] These were ligated into a modified pET43a E. coli expression vector designed to encode N-terminal His tag followed by tobacco etch virus protease (TEV) cleavage site and a STING gene sequence. The resulting protein sequences for the three allelic variants are listed below: […] Cultures were then cooled to 16° C. and protein expression induced by the addition of isopropyl β-D-1-thiogalactopyranoside to a final concentration of 0.5 mM and the cultures shaken overnight for further 16 hours. Following expression, cell cultures were centrifuged at 5000×g for 20 min and cell pellet stored frozen at −70° C. Protein purification was initiated by thawing the cell pellet in Lysis buffer (25 mM Tris-HCl pH 8.0, 300 mM NaCl, 5 mM DTT, 2 mM MgCl2, 10 mM imidazole, 0.5 mg/ml lysozyme, benzonase endonuclease [EMD Millipore], 1 mM PMSF, complete protease inhibitor tablets EDTA-free [Roche]) using a ratio of 7 ml of buffer per 1 g of cells. Cells were further lysed by 3 passes through an ice cooled Avestin C5 cell crusher and then centrifuged at 48,000×g at 4° C. […] The IMAC column was then sequentially washed with IMAC Wash buffer 1 and IMAC Wash buffer 2 (25 mM Tris-HCl pH 8.0, 300 mM NaCl, 5 mM DTT, 20 mM Imidazole) and bound His-TEV-hSTING protein eluted with IMAC Elution buffer (25 mM Tris-HCl pH 8.0, 300 mM NaCl, 5 mM DTT, 250 mM Imidazole). […] Differential scanning fluorimetry (DSF) is a rapid screening method for identifying low-molecular-weight ligands that bind and, in doing so, stabilize (or sometimes destabilize) purified proteins (Niesen 2007). DSF monitors thermal unfolding of protein in the presence of a fluorescent dye and is typically performed using a real-time PCR instrument. The temperature at which a protein unfolds is measured by an increase in the fluorescence of a dye with affinity for hydrophobic parts of the protein that are gradually being exposed during unfolding. The fluorescence of the dye is quenched in aqueous environments, but when the dye associates with hydrophobic sites on unfolded protein, its fluorescence increases. The fluorescence intensity is plotted as a function of the temperature, generating a sigmoidal curve that can be described by a two-state transition. The inflection point of the transition curve (Tm) is calculated using simple equations such as that of Boltzmann. Thermal stability of STING protein (with and without bound ligand) was measured using previously described methodology (Seabrook & Newman, 2013), with samples tested in triplicate using 96-well PCR microplate (AB Gene, ABGAB-0600/W). […] Sealed plates were placed into Bio-Rad CFX96/C1000 thermocycler and FRET scanning mode (λ^excitation of 490 nm and reads at a λ^emission of 570 nm). Melting curves were recorded from 20° C. to 100° C. in 0.5° C. increments every 30 seconds with a read at each increment. Data were analysed using “Meltdown analysis” protocol described by Rosa (2015).

[2] = target: human HAQ isoform of STING (THP-1 STING Lucia ISG cells) (Homo sapiens (Human), UniProt Q86WV6, G230A/H232R/R293Q/R71H); assay: THP-1 STING Lucia ISG reporter cell line assay; type: cell-based; conditions: 24 h incubation, QUANTI-Luc luminescence
Procedure: (§1) THP-1 STING Lucia ISG cells (InvivoGen #thpI-isg) were cultured in RPMI-1640 containing 2 mM L-glutamine, 25 mM HEPES, 100 μg/mL Normocin (InvivoGen) and 10% heat-inactivated FBS. Cells were seeded at a density of 7×10^5 cells/mL, maintained at 37° C./5% CO2, and passaged every 3-4 days. Selection pressure was maintained by the addition of 100 μg/mL Zeocin every second passage.
(§2) Assay conditions: cells were harvested and resuspended at a concentration of 5×10^5 cells/mL in fresh growth media. Of this cell preparation 20 μL per well was dispensed into 384 well cell culture plates (Greiner, #781098X) and incubated at 37° C./5% CO2 for 2 hours. Concentration Response Curves (commonly 11 doses) were prepared by 2.5 fold serial dilution starting from 10 mM compound stock solution in DMSO. Compound dilutions were transferred into the cell culture plates using a pintool (0.1 μL transfer), control wells were matched for DMSO. Positive control wells received ML RR—S2 CDA (Med Chem Express HY12885B) in 5 μL of media to a final concentration of 40 μM. All other wells received additional 5 μL of media only to equalise volume. The plates were incubated for 24 h at 37° C./5% CO2.
(§3) For the detection step, QUANTI-Luc (InvivoGen #rep-qlc1) was prepared according to manufacturer's instruction and 10 μL were added per well to the culture plates. Plates were shaken for ten seconds on an orbital shaker and left in the dark at room temperature for two minutes, before luminescence was read on a Perkin Elmer Envision plate reader.
(§4) Data analysis: Luminescence raw data was normalised % activity relative to the signal of the positive control wells and negative control wells which were not treated with compound. The following formula was used to calculate normalised % activity from raw signals: % activity=(sample−negative)/(positive−negative)
(§5) The THP-1 STING Lucia ISG cell EC50 provides an assessment of activity at the human HAQ isoform of STING. For assessing compound activity against the WT human STING isoform, an equivalent method was conducted where the cells used were THP-1-Dual KI-hSTING-R232 (InvivoGen #thpd-r232).

[3] = target: WT human STING isoform (THP-1-Dual KI-hSTING-R232 cells) (Homo sapiens (Human), UniProt Q86WV6, H232R); assay: THP-1-Dual KI-hSTING-R232 reporter cell line assay; type: cell-based; conditions: 24 h incubation, QUANTI-Luc luminescence
Procedure: as §1, §2, §3, §4, §5

Sequence of WT human STING isoform (THP-1-Dual KI-hSTING-R232 cells) (Q86WV6 whole entry H232R, canonical isoform): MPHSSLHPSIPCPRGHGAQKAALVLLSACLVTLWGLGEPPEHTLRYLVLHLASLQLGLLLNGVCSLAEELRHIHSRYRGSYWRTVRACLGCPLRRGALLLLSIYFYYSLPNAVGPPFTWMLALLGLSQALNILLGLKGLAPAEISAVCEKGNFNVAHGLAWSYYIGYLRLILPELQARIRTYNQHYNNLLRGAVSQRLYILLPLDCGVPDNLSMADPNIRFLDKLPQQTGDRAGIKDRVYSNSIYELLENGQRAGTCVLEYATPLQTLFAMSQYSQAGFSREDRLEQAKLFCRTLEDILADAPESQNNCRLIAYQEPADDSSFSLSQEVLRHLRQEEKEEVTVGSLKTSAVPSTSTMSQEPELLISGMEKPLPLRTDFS
Sequence of human STING (HAQ) (Q86WV6 whole entry G230A/H232R/R293Q, looked up): as the sequence (Q86WV6 whole entry H232R, canonical isoform) above, with G230A, R293Q counted along it
Sequence of human HAQ isoform of STING (THP-1 STING Lucia ISG cells) (Q86WV6 whole entry R71H/G230A/H232R/R293Q, canonical isoform): as the sequence (Q86WV6 whole entry H232R, canonical isoform) above, with R71H, G230A, R293Q counted along it

Compound	ΔTm at 100 µM [1] [°C]	EC50 [2] [nM]	EC50 [3] [nM]
COc1c(C(N)=O)ccc2c1nc(-c1ccc(Cl)cc1-c1n[nH]c(=O)o1)n2CCn1c(-c2ccc(Cl)cc2-c2n[nH]c(=O)o2)nc2c(OC)c(C(N)=O)ccc21 [Example 17, 1,1′-(Ethane-1,2-diyl)bis(2-(4-chloro-2-(5-oxo-4,5-dihydro-1,3,4-oxadiazol-2-yl)phenyl)-4-methoxy-1H-benzo[d]imidazole-5-carboxamide)]	11.9	290	360
COc1c(C(N)=O)ccc2c1nc(-c1ncc(Cl)cc1C(=O)O)n2CCn1c(-c2ncc(Cl)cc2C(=O)O)nc2c(OC)c(C(N)=O)ccc21 [Example 31, 2,2′-(Ethane-1,2-diylbis(5-carbamoyl-4-methoxy-1H-benzo[d]imidazole-1,2-diyl))bis(5-chloronicotinic acid)]	3.98	> 40000	> 40000
NC(=O)c1ccc2c(c1)nc(-c1cc(Br)ccc1C(=O)O)n2CCn1c(-c2cc(Br)ccc2C(=O)O)nc2cc(C(N)=O)ccc21 [Example 3, 2,2′-(Ethane-1,2-diylbis(5-carbamoyl-1H-benzo[d]imidazole-1,2-diyl))bis(4-bromobenzoic acid)]	2.66	> 40000	> 40000
COc1c(C(N)=O)ccc2c1nc(-c1cccc(Cl)c1-c1nn[nH]n1)n2CCn1c(-c2cccc(Cl)c2-c2nn[nH]n2)nc2c(OC)c(C(N)=O)ccc21 [Example 40, 1,1′-(Ethane-1,2-diyl)bis(2-(3-chloro-2-(2H-tetrazol-5-yl)phenyl)-4-methoxy-1H-benzo[d]imidazole-5-carboxamide)]	-1.74	> 40000	> 40000
COc1c(C(N)=O)ccc2c1nc(-c1cc(C)ccc1C(=O)O)n2CCn1c(-c2cc(C)ccc2C(=O)O)nc2c(OC)c(C(N)=O)ccc21 [Example 26, 2,2′-(Ethane-1,2-diylbis(5-carbamoyl-4-methoxy-1H-benzo[d]imidazole-1,2-diyl))bis(4-methylbenzoic acid)]	6.33	3380	3220
COc1c(C(N)=O)ccc2c1nc(-c1ccccc1-c1nn[nH]n1)n2CCn1c(-c2ccccc2-c2nn[nH]n2)nc2c(OC)c(C(N)=O)ccc21 [Example 6, 1,1′-(Ethane-1,2-diyl)bis(2-(2-(2H-tetrazol-5-yl)phenyl)-4-methoxy-1H-benzo[d]imidazole-5-carboxamide)]	5.44	902	936
COc1c(C(N)=O)ccc2c1nc(-c1c(Cl)cccc1-c1nn[nH]n1)n2CCn1c(-c2c(Cl)cccc2-c2nn[nH]n2)nc2c(OC)c(C(N)=O)ccc21 (single isomer, unassigned) [Example 23, 1,1′-(Ethane-1,2-diyl)bis(2-(2-chloro-6-(2H-tetrazol-5-yl)phenyl)-4-methoxy-1H-benzo[d]imidazole-5-carboxamide)]	29.2	2500	2470
COc1c(C(N)=O)ccc2c1nc(-c1c(F)cc(F)cc1C(=O)O)n2CCn1c(-c2c(F)cc(F)cc2C(=O)O)nc2c(OC)c(C(N)=O)ccc21 [Example 16, 2,2′-(Ethane-1,2-diylbis(5-carbamoyl-4-methoxy-1H-benzo[d]imidazole-1,2-diyl))bis(3,5-difluorobenzoic acid)]	17.2	738	840
COc1c(C(N)=O)ccc2c1nc(-c1cnccc1C(=O)O)n2CCn1c(-c2cnccc2C(=O)O)nc2c(OC)c(C(N)=O)ccc21 [Example 30, 3,3′-(Ethane-1,2-diylbis(5-carbamoyl-4-methoxy-1H-benzo[d]imidazole-1,2-diyl))diisonicotinic acid]	2.14	39100	28900
COc1c(C(N)=O)ccc2c1nc(-c1cccc(Br)c1C(=O)O)n2CCn1c(-c2cccc(Br)c2C(=O)O)nc2c(OC)c(C(N)=O)ccc21 [Example 36, 6,6′-(Ethane-1,2-diylbis(5-carbamoyl-4-methoxy-1H-benzo[d]imidazole-1,2-diyl))bis(2-bromobenzoic acid)]	5.24	> 40000	> 40000
COc1c(C(N)=O)ccc2c1nc(-c1c(F)cc(F)cc1-c1nn[nH]n1)n2CCn1c(-c2c(F)cc(F)cc2-c2nn[nH]n2)nc2c(OC)c(C(N)=O)ccc21 [Example 43, 1,1′-(Ethane-1,2-diyl)bis(2-(2,4-difluoro-6-(2H-tetrazol-5-yl)phenyl)-4-methoxy-1H-benzo[d]imidazole-5-carboxamide)]	22.2	574	440
NC(=O)c1ccc2c(c1)nc(-c1c(Br)cccc1C(=O)O)n2CCn1c(-c2c(Br)cccc2C(=O)O)nc2cc(C(N)=O)ccc21 (single isomer, unassigned) [Example 29.1, 2,2′-(Ethane-1,2-diylbis(5-carbamoyl-1H-benzo[d]imidazole-1,2-diyl))bis(3-bromobenzoic acid)]		18400	9850
COC(=O)c1c(Br)cccc1-c1nc2c(OC)c(C(N)=O)ccc2n1CCn1c(-c2cccc(Br)c2C(=O)OC)nc2c(OC)c(C(N)=O)ccc21 [Example 21, Dimethyl 6,6′-(ethane-1,2-diylbis(5-carbamoyl-4-methoxy-1H-benzo[d]imidazole-1,2-diyl))bis(2-bromobenzoate)]	5.83	1490	1630
COc1c(C(N)=O)ccc2c1nc(-c1ccccc1C(=O)O)n2CCn1c(-c2ccccc2C(=O)O)nc2c(OC)c(C(N)=O)ccc21 [Example 4, 2,2′-(Ethane-1,2-diylbis(5-carbamoyl-4-methoxy-1H-benzo[d]imidazole-1,2-diyl))dibenzoic acid]	7.23	15900	32500
COc1c(C(N)=O)ccc2c1nc(-c1c(Cl)cccc1C(=O)O)n2CCn1c(-c2c(Cl)cccc2C(=O)O)nc2c(OC)c(C(N)=O)ccc21 (racemic) [Example 22, 2,2′-(Ethane-1,2-diylbis(5-carbamoyl-4-methoxy-1H-benzo[d]imidazole-1,2-diyl))bis(3-chlorobenzoic acid)]	28.2	1530	1450
